Tested on: corticospinal neurons (CSNs/CSMNs)
Assay: Laser-capture microdissection and Illumina microarray gene expression in corticospinal neurons contralateral to stroke
Format: in vivo, rat
Conditions: for Signal Intensity, Treatment after Stroke: Inosine: CSMNs contralateral to SMA infarct
Description: In a separate group of animals (n=20), layer V pyramidal cells of the sensorimotor cortex were retrogradely labeled by injecting Alexa-Fluor-488-conjugated cholera toxin B subunit (CTB; 300 U/μl in sterile saline) into the cervical spinal cord. For this, animals were anesthetized with a combination of ketamine and Domitor (medetomidine) and a laminectomy was performed at the cervical level of the spinal cord (C2-C4). CTB was stereotaxically delivered into four sites lateral to the corticospinal tract. Injections (1.3 μl) were spaced 1 mm apart on the rostro-caudal axis, and were made 0.5 mm to the left and right of the midline. After allowing two weeks for transport of the tracer, we performed either sham surgery with no treatment (n=6) or stroke surgery combined with saline (n=3) or inosine (n=4) treatment as described above. Seven days later, animals were decapitated under transient gas anesthesia, brains were removed and rinsed in cold RPMI medium, and a tissue block containing the sensorimotor cortex was dissected and placed in OCT Tissue Tek Medium (Sakura Finetek USA Inc., CA) on dry ice within five minutes of death. Ten μm sections were cut onto precleaned Gold Seal RITE-ON glass slides (Gold Seal Prod-ucts, Portsmouth, N.H.), placed on dry ice, and rapidly stored at −80° C.
Slide-mounted sections were thawed and dehydrated in RNAse-free ethanol gradients and xylene. Retro-gradely labeled, fluorescent cortical pyramidal cells in the undamaged hemisphere were individually captured using the Arcturus VERITAS system. ≧500 cells were collected from each animal and stored in Arcturus extraction buffer at −80° C. Total RNA was extracted from cells using the Micro-to-Midi TotalRNA Purification System (Invitrogen, Carlsbad Calif.) and double-amplified using the TargetAmp 2-Round Aminoallyl-aRNA Amplification kit 1.0 (Epicentre, Madison, Wis.). Amplified RNA was checked for average fragment length using the Agilent RNA 6000 Nano LabChip kit (Agilent Technologies, Santa Clara, Calif.) and then biotinylated and hybridized (1 μg) on Illumina RatRef-12 Expression BeadChip arrays (Illumina, San Diego Calif.), querying the expression of >22,000 RefSeq-curated rat transcripts. Results were obtained from a total of 15 samples representing 6 untreated controls, 4 animals with stroke treated with saline and 5 animals with stroke treated with inosine. Slides were processed and scanned with Illumina BeadStation platform according to the manufacturer protocol.
Raw data was analyzed using Bioconductor packages (www.bioconductor.org, (Gentleman et al., 2004)). Low level quality-control analysis was performed using inter-array Pearson correlation and clustering based on variance. Two arrays (1 saline and 1 inosine-treated) were outliers and were excluded from the analysis. Data was normalized using quantile normalization, and analysis of differential expression was performed using a linear model fitting (LIMMA package, (Smyth, 2005). Differentially expressed genes were classified according to gene ontology using Bioconductor packages and online tools (DAVID, http://david.abcc.ncifcrf.gov/). Pathway analysis was carried out using Ingenuity Pathway Analysis (Ingenuity Systems, www.ingenuity.com).

[1] = ILMN_161110, similar to myo-inositol 1-phosphate synthase A1

OC[C@H]1O[C@@H](n2cnc3c(O)ncnc32)[C@H](O)[C@@H]1O [inosine]
Fold-Induction Stroke, ino vs. cntrl, Rpl31 (ILMN_70426): 0.90 | Signal Intensity, Rpl31 (ILMN_70426, inosine after stroke): 831 | Fold-Induction Stroke, ino vs. cntrl [1]: 2.90 | Signal Intensity Inosine [1]: 3241 | Fold-Induction Stroke, ino vs. cntrl (Ifitm3 ILMN_48088): 2.71 | Signal Intensity Inosine (Ifitm3 ILMN_48088): 2516 | Fold-Induction Stroke, ino vs. cntrl (Igfbp2 ILMN_54332): 3.97 | Signal Intensity Inosine (Igfbp2 ILMN_54332): 3801 | Fold-Induction Stroke, ino vs. cntrl (Ing4 ILMN_54994): 1.01 | Signal Intensity Inosine (Ing4 ILMN_54994): 1169 | Fold-Induction Stroke, ino vs. cntrl (Irf3 ILMN_51700): 2.92 | Signal Intensity Inosine (Irf3 ILMN_51700): 12720 | Fold-Induction Stroke, ino vs. cntrl (LOC291847 ILMN_62527): 1.32 | Signal Intensity Inosine (LOC291847 ILMN_62527): 558 | Fold-Induction Stroke, ino vs. cntrl (LOC294337 ILMN_68161): 2.56 | Signal Intensity Inosine (LOC294337 ILMN_68161): 2622 | Fold-Induction Stroke, ino vs. cntrl (LOC295941 ILMN_58921): 1.07 | Signal Intensity Inosine (LOC295941 ILMN_58921): 3970 | Fold-Induction Stroke, ino vs. cntrl (LOC300149 ILMN_48288): 1.34 | Signal Intensity Inosine (LOC300149 ILMN_48288): 2789 | Fold-Induction Stroke, ino vs. cntrl (LOC301122 ILMN_62401): 1.22 | Signal Intensity Inosine (LOC301122 ILMN_62401): 925 | Fold-Induction Stroke, ino vs. cntrl (LOC303702 ILMN_64738): 1.72 | Signal Intensity Inosine (LOC303702 ILMN_64738): 899 | Fold-Induction Stroke, ino vs. cntrl (LOC303790 ILMN_56510): 1.45 | Signal Intensity Inosine (LOC303790 ILMN_56510): 2300 | Fold-Induction Stroke, ino vs. cntrl (LOC304116 ILMN_63846): 0.99 | Signal Intensity Inosine (LOC304116 ILMN_63846): 393 | Fold-Induction Stroke, ino vs. cntrl (LOC305076 ILMN_60367): 1.56 | Signal Intensity Inosine (LOC305076 ILMN_60367): 824 | Fold-Induction Stroke, ino vs. cntrl (LOC305633 ILMN_51277): 2.99 | Signal Intensity Inosine (LOC305633 ILMN_51277): 2047 | Fold-Induction Stroke, ino vs. cntrl (LOC317579 ILMN_58258): 1.52 | Signal Intensity Inosine (LOC317579 ILMN_58258): 733 | Fold-Induction Stroke, ino vs. cntrl (LOC360627 ILMN_61895): 2.62 | Signal Intensity Inosine (LOC360627 ILMN_61895): 1064 | Fold-Induction Stroke, ino vs. cntrl (LOC360644 ILMN_48641): 3.68 | Signal Intensity Inosine (LOC360644 ILMN_48641): 602 | Fold-Induction Stroke, ino vs. cntrl (LOC361080 ILMN_61547): 0.40 | Signal Intensity Inosine (LOC361080 ILMN_61547): 295 | Fold-Induction Stroke, ino vs. cntrl (LOC362015 ILMN_62932): 1.37 | Signal Intensity Inosine (LOC362015 ILMN_62932): 1285 | Fold-Induction Stroke, ino vs. cntrl (LOC362304 ILMN_53204): 1.34 | Signal Intensity Inosine (LOC362304 ILMN_53204): 5067 | Fold-Induction Stroke, ino vs. cntrl (LOC362857 ILMN_64100): 0.43 | Signal Intensity Inosine (LOC362857 ILMN_64100): 1081 | Fold-Induction Stroke, ino vs. cntrl (LOC497739 ILMN_66205): 1.65 | Signal Intensity Inosine (LOC497739 ILMN_66205): 4864 | Fold-Induction Stroke, ino vs. cntrl (LOC497841 ILMN_51249): 11.52 | Signal Intensity Inosine (LOC497841 ILMN_51249): 2841 | Fold-Induction Stroke, ino vs. cntrl (LOC498185 ILMN_58236): 2.76 | Signal Intensity Inosine (LOC498185 ILMN_58236): 804 | Fold-Induction Stroke, ino vs. cntrl (LOC498276 ILMN_65617): 2.56 | Signal Intensity Inosine (LOC498276 ILMN_65617): 3014 | Fold-Induction Stroke, ino vs. cntrl (LOC498279 ILMN_65961): 4.07 | Signal Intensity Inosine (LOC498279 ILMN_65961): 8892 | Fold-Induction Stroke, ino vs. cntrl (LOC498335 ILMN_53325): 25.26 | Signal Intensity Inosine (LOC498335 ILMN_53325): 3310 | Fold-Induction Stroke, ino vs. cntrl (LOC498614 ILMN_54303): 1.05 | Signal Intensity Inosine (LOC498614 ILMN_54303): 2373 | Fold-Induction Stroke, ino vs. cntrl (LOC498957 ILMN_67281): 1.28 | Signal Intensity Inosine (LOC498957 ILMN_67281): 1081 | Fold-Induction Stroke, ino vs. cntrl (LOC499244 ILMN_49099): 2.24 | Signal Intensity Inosine (LOC499244 ILMN_49099): 14824 | Fold-Induction Stroke, ino vs. cntrl (LOC500226 ILMN_54711): 2.10 | Signal Intensity Inosine (LOC500226 ILMN_54711): 7922 | Fold-Induction Stroke, ino vs. cntrl (LOC500804 ILMN_61346): 2.35 | Signal Intensity Inosine (LOC500804 ILMN_61346): 5507 | Fold-Induction Stroke, ino vs. cntrl (Lap3 ILMN_57870): 1.01 | Signal Intensity Inosine (Lap3 ILMN_57870): 918 | Fold-Induction Stroke, ino vs. cntrl (Lcpl ILMN_58058): 2.76 | Signal Intensity Inosine (Lcpl ILMN_58058): 1306 | Fold-Induction Stroke, ino vs. cntrl (Lgals3bp ILMN_60037): 3.00 | Signal Intensity Inosine (Lgals3bp ILMN_60037): 629 | Fold-Induction Stroke, ino vs. cntrl (Man2b1 ILMN_65999): 2.64 | Signal Intensity Inosine (Man2b1 ILMN_65999): 1676 | Fold-Induction Stroke, ino vs. cntrl (Map2k6 ILMN_53013): 1.19 | Signal Intensity Inosine (Map2k6 ILMN_53013): 3981 | Fold-Induction Stroke, ino vs. cntrl (Mt1a ILMN_53575): 3.68 | Signal Intensity Inosine (Mt1a ILMN_53575): 3267 | Fold-Induction Stroke, ino vs. cntrl (Nfkbia ILMN_49934): 2.69 | Signal Intensity Inosine (Nfkbia ILMN_49934): 3250 | Fold-Induction Stroke, ino vs. cntrl (Oplah ILMN_65374): 2.05 | Signal Intensity Inosine (Oplah ILMN_65374): 2440 | Fold-Induction Stroke, ino vs. cntrl (Pfc ILMN_56164): 2.02 | Signal Intensity Inosine (Pfc ILMN_56164): 1375 | Fold-Induction Stroke, ino vs. cntrl (Pkn1 ILMN_63766): 1.69 | Signal Intensity Inosine (Pkn1 ILMN_63766): 2365 | Fold-Induction Stroke, ino vs. cntrl (Plcd1 ILMN_50502): 1.90 | Signal Intensity Inosine (Plcd1 ILMN_50502): 1514 | Fold-Induction Stroke, ino vs. cntrl (Plek ILMN_57609): 2.99 | Signal Intensity Inosine (Plek ILMN_57609): 1937 | Fold-Induction Stroke, ino vs. cntrl (Pnck ILMN_66828): 1.65 | Signal Intensity Inosine (Pnck ILMN_66828): 8946 | Fold-Induction Stroke, ino vs. cntrl (Polrmt ILMN_59207): 1.52 | Signal Intensity Inosine (Polrmt ILMN_59207): 1219 | Fold-Induction Stroke, ino vs. cntrl (Ppp1r14b ILMN_59774): 2.26 | Signal Intensity Inosine (Ppp1r14b ILMN_59774): 2071 | Fold-Induction Stroke, ino vs. cntrl (Ptpn6 ILMN_61314): 3.52 | Signal Intensity Inosine (Ptpn6 ILMN_61314): 957 | Fold-Induction Stroke, ino vs. cntrl (Ptprr ILMN_55987): 1.04 | Signal Intensity Inosine (Ptprr ILMN_55987): 676 | Fold-Induction Stroke, ino vs. cntrl (RGD1309326 ILMN_60781): 1.43 | Signal Intensity Inosine (RGD1309326 ILMN_60781): 2333 | Fold-Induction Stroke, ino vs. cntrl (RT1-Da ILMN_59933): 11.11 | Signal Intensity Inosine (RT1-Da ILMN_59933): 3072 | Fold-Induction Stroke, ino vs. cntrl (Rbl2 ILMN_59080): 1.30 | Signal Intensity Inosine (Rbl2 ILMN_59080): 1060 | Fold-Induction Stroke, ino vs. cntrl (Rfx1 ILMN_50833): 1.51 | Signal Intensity Inosine (Rfx1 ILMN_50833): 4995 | Fold-Induction Stroke, ino vs. cntrl (Rhoj ILMN_58882): 2.67 | Signal Intensity Inosine (Rhoj ILMN_58882): 588 | Fold-Induction Stroke, ino vs. cntrl (Rhot2 ILMN_62537): 1.68 | Signal Intensity Inosine (Rhot2 ILMN_62537): 1112 | Fold-Induction Stroke, ino vs. cntrl (Rnaset2 ILMN_55431): 2.31 | Signal Intensity Inosine (Rnaset2 ILMN_55431): 7227 | Fold-Induction Stroke, ino vs. cntrl (Serpinb1a ILMN_57422): 2.68 | Signal Intensity Inosine (Serpinb1a ILMN_57422): 589 | Fold-Induction Stroke, ino vs. cntrl (Serping1 ILMN_60046): 3.19 | Signal Intensity Inosine (Serping1 ILMN_60046): 1251 | Fold-Induction Stroke, ino vs. cntrl (Sgpp1 ILMN_57304): 0.44 | Signal Intensity Inosine (Sgpp1 ILMN_57304): 316 | Fold-Induction Stroke, ino vs. cntrl (Slc9a1 ILMN_53105): 1.32 | Signal Intensity Inosine (Slc9a1 ILMN_53105): 2100 | Fold-Induction Stroke, ino vs. cntrl (Slc35b4 ILMN_68450): 1.41 | Signal Intensity Inosine (Slc35b4 ILMN_68450): 430 | Fold-Induction Stroke, ino vs. cntrl (Smoc2 ILMN_60870): 3.79 | Signal Intensity Inosine (Smoc2 ILMN_60870): 1123 | Fold-Induction Stroke, ino vs. cntrl (Soc ILMN_57817): 1.36 | Signal Intensity Inosine (Soc ILMN_57817): 1341 | Fold-Induction Stroke, ino vs. cntrl (Srebf1 ILMN_51834): 1.47 | Signal Intensity Inosine (Srebf1 ILMN_51834): 1069 | Fold-Induction Stroke, ino vs. cntrl (Tcirg1 ILMN_52949): 2.81 | Signal Intensity Inosine (Tcirg1 ILMN_52949): 2173 | Fold-Induction Stroke, ino vs. cntrl (Timp1 ILMN_62559): 3.57 | Signal Intensity Inosine (Timp1 ILMN_62559): 2293 | Fold-Induction Stroke, ino vs. cntrl (Tle2 ILMN_54011): 3.03 | Signal Intensity Inosine (Tle2 ILMN_54011): 2295 | Fold-Induction Stroke, ino vs. cntrl (Tm6p1 ILMN_57902): 1.99 | Signal Intensity Inosine (Tm6p1 ILMN_57902): 1532 | Fold-Induction Stroke, ino vs. cntrl (Trim39 ILMN_54591): 1.35 | Signal Intensity Inosine (Trim39 ILMN_54591): 1351 | Fold-Induction Stroke, ino vs. cntrl (Unc93b ILMN_53114): 2.10 | Signal Intensity Inosine (Unc93b ILMN_53114): 600 | Signal Intensity, Treatment after Stroke: Inosine (gene P2rxl1 (ILMN_68585)): 246 | Signal Intensity, Treatment after Stroke: Inosine (gene Tm7sf2 (ILMN_58100)): 419

Source: patent US8912144B2, “Method for treating stroke via administration of NEP1-40 and inosine” (Children's Medical Center Corporation, priority 2003, dated 2014)
